Results as given in patent US20100003246A1, “Novel heterocyclic compounds and uses therof” (priority 2008, published 2010).

What follows are molecules tested against T1, b-Raf(V600E) (Homo sapiens, UniProt P15056, V600E) (assay: Raf/Mek Amplified Luminescence Proximity Homogeneous Assay (Alpha Screen), b-Raf(V600E)). Settings: mutant b-Raf(V600E), read-out: mut-b-RAF (IC50 in uM).
T1 construct: made in house
Format: biochemical
Method: Assay buffer: 50 mM Tris, pH 7.5, 15 mM MgCl2, 0.01% BSA, 1 mM DTT Stop buffer: 60 mM EDTA, 0.01% Tween20 Bead buffer: 50 mM Tris, pH 7.5, 0.01% Tween20
b-Raf(V600E), active: Recombinant in-house material biotinylated Mek, kinase dead: Recombinant in-house material Alpha Screen detection kit PerkinElmer, #6760617R Anti phospho-MEK½ Cell signaling #9121 384 well assay plates: White Greiner plates, #781207
b-Raf(V600E) approximately 4 pM c-Raf approximately 4 nM biotinylated Mek, Kinase dead approximately 10 nM
Pre-incubation time with compounds 60 min at room temperature Reaction time 1 or 3 hours at room temperature
Raf and biotinylated Mek, kinase dead, were combined at 2× final concentrations in assay buffer (50 mM Tris, pH 7.5, 15 mM MgCl2, 0.01% BSA and 1 mM DTT) and dispensed 10 μl per well in assay plates (Greiner white 384 well assay plates #781207) containing 0.5 μl of 40× of a raf kinase inhibitor test compound diluted in 100% DMSO. The plate was incubated for 60 min at room temperature.
The Raf kinase activity reaction was started by the addition of 10 μl per well of 2×ATP diluted in assay buffer. After 3 hours (bRaf(V600E)) or 1 hour (c-Raf), the reactions were stopped with the addition of 10 μl of stop reagent (60 mM EDTA). Phosphorylated product was measured using a rabbit anti-p-MEK (Cell Signaling, #9121) antibody and the Alpha Screen IgG (Protein A) detection Kit (PerkinElmer #6760617R), by the addition of 30 μL to the well of a mixture of the antibody (1:2000 dilution) and detection beads (1:2000 dilution of both beads) in bead buffer (50 mM Tris, pH 7.5, 0.01% Tween20). The additions were carried out under dark conditions to protect the detection beads from light. A lid was placed on top of the plate and incubated for 1 hour at room temperature, then the luminescence was read on a PerkinElmer Envision instrument. The concentration of each compound for 50% inhibition (IC50) was calculated by non-linear regression using XL Fit data analysis software.
The Raf/Mek Amplified Luminescence Proximity Homogeneous Assay described was used to generate the luminescence and mutant b-Raf(V600E) IC50 data for selected Raf Kinase Inhibitors shown in Table 1 above.

T1 sequence (P15056 whole entry V600E): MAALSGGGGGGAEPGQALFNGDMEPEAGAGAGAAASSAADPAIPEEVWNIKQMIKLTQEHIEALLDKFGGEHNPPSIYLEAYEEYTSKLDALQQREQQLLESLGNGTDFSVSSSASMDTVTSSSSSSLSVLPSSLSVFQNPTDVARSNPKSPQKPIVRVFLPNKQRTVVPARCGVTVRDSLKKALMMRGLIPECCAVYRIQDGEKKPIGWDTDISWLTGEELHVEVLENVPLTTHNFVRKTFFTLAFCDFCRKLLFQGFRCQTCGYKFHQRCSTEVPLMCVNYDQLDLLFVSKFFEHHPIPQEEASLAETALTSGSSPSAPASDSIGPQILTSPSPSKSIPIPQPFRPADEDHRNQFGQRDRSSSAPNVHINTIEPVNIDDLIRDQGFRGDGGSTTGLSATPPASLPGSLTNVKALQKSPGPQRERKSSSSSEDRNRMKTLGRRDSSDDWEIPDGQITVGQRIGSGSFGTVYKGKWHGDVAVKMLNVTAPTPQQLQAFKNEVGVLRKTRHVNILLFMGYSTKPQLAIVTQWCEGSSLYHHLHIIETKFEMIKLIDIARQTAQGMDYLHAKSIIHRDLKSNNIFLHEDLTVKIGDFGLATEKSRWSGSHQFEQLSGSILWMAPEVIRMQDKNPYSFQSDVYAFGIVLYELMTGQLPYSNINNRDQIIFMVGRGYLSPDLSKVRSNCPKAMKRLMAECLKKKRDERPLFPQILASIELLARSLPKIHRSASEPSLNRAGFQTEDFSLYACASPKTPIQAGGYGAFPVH

Row | SMILES | IC50 [µM]
1 | COc1cc(-c2[nH]c(-c3ccc(F)cc3)nc2-c2cn[nH]c2)cnc1N [Compound 96, 5-(2-(4-fluorophenyl)-4-(1H-pyrazol-4-yl)-1H-imidazol-5-yl)-3-methoxypyridin-2-amine] | 0.0321
2 | COCC(=O)N1CCC[C@@H](Nc2nccc(-c3nc(-c4ccc(C(F)(F)F)cc4)[nH]c3-c3cnc(N)c(OC)c3)n2)C1 [Compound 97, (R)-1-(3-(4-(5-(6-amino-5-methoxypyridin-3-yl)-2-(4-(trifluoromethyl)phenyl)-1H-imidazol-4-yl)pyrimidin-2-ylamino)piperidin-1-yl)-2-methoxyethanone] | 0.031
3 | COc1cc(-c2[nH]c(-c3ccc(F)cc3)nc2-c2ccnc(NCCNS(=O)(=O)C3CC3)n2)cnc1N [Compound 98, N-(2-(4-(5-(6-amino-5-methoxypyridin-3-yl)-2-(4-fluorophenyl)-1H-imidazol-4-yl)pyrimidin-2-ylamino)ethyl)cyclopro-panesulfonamide] | 0.0001
4 | COc1cc(-c2[nH]c(-c3ccccc3)nc2-c2ccnc(NCCNS(C)(=O)=O)n2)cnc1N [Compound 99, N-(2-(4-(5-(6-amino-5-methoxypyridin-3-yl)-2-phenyl-1H-imidazol-4-yl)pyrimidin-2-ylamino)ethyl)methanesul-fonamide] | 0.0001
5 | COCC(=O)N1CCC[C@@H](Nc2nccc(-c3nc(-c4ccc(F)cc4)[nH]c3-c3cnc(N)c(OC)c3)n2)C1 [Compound 100, (R)-1-(3-(4-(5-(6-amino-5-methoxypyridin-3-yl)-2-(4-fluorophenyl)-1H-imidazol-4-yl)pyrimidin-2-ylamino)piperidin-1-yl)-2-methoxyethanone] | 0.0259
6 | COC(=O)c1cccc(-c2nc(-c3ccncc3)c(-c3cnc(N)c(OC)c3)[nH]2)c1 [Compound 101, methyl 3-(5-(6-amino-5-methoxypyridin-3-yl)-4-(pyridin-4-yl)-1H-imidazol-2-yl)benzoate] | 0.0013
7 | COc1cc(-c2[nH]c(-c3cccc(C#N)c3)nc2-c2ccncc2)cnc1N [Compound 102, 3-(5-(6-amino-5-methoxypyridin-3-yl)-4-(pyridin-4-yl)-1H-imidazol-2-yl)benzonitrile] | 0.0011
8 | COC(=O)c1ccc(-c2nc(-c3ccncc3)c(-c3cnc(N)c(OC)c3)[nH]2)cc1 [Compound 103, methyl 4-(5-(6-amino-5-methoxypyridin-3-yl)-4-(pyridin-4-yl)-1H-imidazol-2-yl)benzoate] | 0.0007
9 | COc1cc(-c2[nH]c(-c3ccc(C#N)cc3)nc2-c2ccncc2)cnc1N [Compound 104, 4-(5-(6-amino-5-methoxypyridin-3-yl)-4-(pyridin-4-yl)-1H-imidazol-2-yl)benzonitrile] | 0.0014
10 | CCc1cc(-c2[nH]c(-c3ccc(F)cc3)nc2-c2ccncc2)cnc1N [Compound 105, 3-ethyl-5-(2-(4-fluorophenyl)-4-(pyridin-4-yl)-1H-imidazol-5-yl)pyridin-2-amine] | 0.215
11 | COc1ccc(-c2nc(-c3ccncc3)c(-c3cnc(N)c(OC)c3)[nH]2)cc1OC [Compound 107, 5-(2-(3,4-dimethoxyphenyl)-4-(pyridin-4-yl)-1H-imidazol-5-yl)-3-methoxypyridin-2-amine] | 0.0007
12 | COc1ccc(-c2nc(-c3ccncc3)c(-c3cnc(N)c(OC)c3)[nH]2)cc1F [Compound 108, 5-(2-(3-fluoro-4-methoxyphenyl)-4-(pyridin-4-yl)-1H-imidazo-5-yl)-3-methoxypyridin-2-amine] | 0.0007
13 | COc1cc(-c2[nH]c(-c3ccc(F)c(F)c3)nc2-c2ccncc2)cnc1N [Compound 109, 5-(2-(3,4-difluorophenyl)-4-(pyridin-4-yl)-1H-imidazol-5-yl)-3-methoxypyridin-2-amine] | 0.0012
14 | COc1cc(-c2[nH]c(-c3cccc(C)c3)nc2-c2ccncc2)cnc1N [Compound 110, 3-methoxy-5-(4-(pyridin-4-yl)-2-tolyl-1H-imidazol-5-yl)pyridin-2-amine] | 0.0005
15 | COc1cc(-c2nc(-c3ccc(F)cc3)[nH]c2-c2ccnc(F)c2)cnc1N [Compound 111, 5-(2-(4-fluorophenyl)-5-(2-fluoropyridin-4-yl)-1H-imidazol-4-yl)-3-methoxypyridin-2-amine] | 0.0292
16 | COc1cc(-c2[nH]c(-c3ccc(F)cc3)nc2-c2cnc(N)c(OC)c2)ccn1 [Compound 112, 5-(2-(4-fluorophenyl)-5-(2-methoxypyridin-4-yl)-1H-imidazol-4-yl)-3-methoxypyridin-2-amine] | 0.737

Row | SMILES | IC50 [µM]
17 | COc1cc(-c2nc(C3=CCCCC3)[nH]c2-c2ccncc2)cnc1N [Compound 113, 5-(2-cyclohexenyl-5-(pyridin-4-yl)-1H-imidazol-4-yl)-3-methoxypyridin-2-amine] | 0.0026
18 | COc1cc(-c2[nH]c(-c3ccc(OCCN(C)C)cc3)nc2-c2ccncc2)cnc1N [Compound 114] | 0.0064
19 | COc1cc(-c2[nH]c(-c3cccc(C(C)C)c3)nc2-c2ccncc2)cnc1N [Compound 115, 5-(2-(3-isopropylphenyl)-4-(pyridin-4-yl)-1H-imidazol-5-yl)-3-methoxypyridin-2-amine] | 0.003
20 | COc1cc(-c2[nH]c(-c3cccc(OC)c3F)nc2-c2ccncc2)cnc1N [Compound 116, 5-(2-(2-fluoro-3-methoxyphenyl)-4-(pyridin-4-yl)-1H-imidazol-5-yl)-3-methoxypyridin-2-amine] | 0.0017
21 | COc1cc(-c2[nH]c(-c3ccc(C)c(F)c3)nc2-c2ccncc2)cnc1N [Compound 117, 5-(2-(3-fluoro-4-methylphenyl)-4-(pyridin-4-yl)-1H-imidazol-5-yl)-3-methoxypyridin-2-amine] | 0.0007
22 | COc1cc(-c2nc(C3CCCCC3)[nH]c2-c2ccncc2)cnc1N [Compound 118, 5-(2-cyclohexyl-5-(pyridin-4-yl)-1H-imidazol-4-yl)-3-methoxypyridin-2-amine] | 0.002
23 | COc1cc(-c2nc(-c3ccn(C)n3)[nH]c2-c2ccncc2)cnc1N [Compound 119, 3-methoxy-5-(2-(1-methyl-1H-pyrazol-3-yl)-5-(pyridin-4-yl)-1H-imidazol-4-yl)pyridin-2-amine] | 0.0019
24 | COc1cc(-c2[nH]c(-c3cccc(S(C)(=O)=O)c3)nc2-c2ccncc2)cnc1N [Compound 120, 3-methoxy-5-(2-(3-(methylsulfonyl)phenyl)-4-(pyridin-4-yl)-1H-imidazol-5-yl)pyridin-2-amine] | 0.0088
25 | COc1cc(-c2[nH]c(-c3ccc(S(N)(=O)=O)cc3)nc2-c2ccncc2)cnc1N [Compound 121, 4-(5-(6-amino-5-methoxypyridin-3-yl)-4-(pyridin-4-yl)-1H-imidazol-2-yl)benzenesulfonamide] | 0.0017
26 | COc1cc(-c2[nH]c(-c3cccc(C(N)=O)c3)nc2-c2ccncc2)cnc1N [Compound 122, 3-(5-(6-amino-5-methoxypyridin-3-yl)-4-(pyridin-4-yl)-1H-imidazol-2-yl)benzamide] | 0.0021
27 | COc1cc(-c2[nH]c(-c3cc(C(=O)N(C)C)ccc3F)nc2-c2ccncc2)cnc1N [Compound 124, 3-(5-(6-amino-5-methoxypyridin-3-yl)-4-(pyridin-4-yl)-1H-imidazol-2-yl)-4-fluoro-N,N-dimethylbenzamide] | 0.0166
28 | COc1cc(-c2[nH]c(-c3ccc(C(N)=O)cc3)nc2-c2ccncc2)cnc1N [Compound 126, 4-(5-(6-amino-5-methoxypyridin-3-yl)-4-(pyridin-4-yl)-1H-imidazol-2-yl)benzamide] | 0.0035
29 | COc1cc(-c2nc(C3=CCCC3)[nH]c2-c2ccncc2)cnc1N [Compound 127, 5-(2-cyclopentenyl-5-(pyridin-4-yl)-1H-imidazol-4-yl)-3-methoxypyridin-2-amine] | 0.0018
30 | COc1cc(-c2nc(C(C)(C)C)[nH]c2-c2ccncc2)cnc1N [Compound 128, 5-(2-tert-butyl-5-(pyridin-4-yl)-1H-imidazol-4-yl)-3-methoxypyridin-2-amine] | 0.001
31 | COc1cc(-c2[nH]c(-c3ccc(F)cc3)nc2-c2ccnc3[nH]ccc23)cnc1N [Compound 129, 5-(2-(4-fluorophenyl)-4-(1H-pyrrolo[2,3-b]pyridin-4-yl)-1H-imidazol-5-yl)-3-methoxypyridin-2-amine] | 0.0088
32 | Fc1ccc(-c2nc(-c3ccncc3)c(-c3ccc4ncnn4c3)[nH]2)cc1 [Compound 130, 6-(2-(4-fluorophenyl)-4-(pyridin-4-yl)-1H-imidazol-5-yl)-[1,2,4]triazolo[1,5-a]pyridine] | 0.416
